Experiments:
Cimex lectularius [1] = experiment: three-dish, dual-choice olfactometer bioassay; format: in vivo
Text: Bioassays were run in dual-choice olfactometers and in large Plexiglass arenas (FIG. 1). Dual-choice olfactometers consisted of two lateral Pyrex® glass Petri dishes, connected to a central dish (all dishes 3×9 cm inner diameter) via a Pyrex® glass tube (2.5 cm long×2 cm inner diameter). The dishes in this olfactometer mimic the natural still-air shelters in which bed bugs spend the day. Prior to the start of bioassays, a disc of paper towelling (9 cm diameter) was placed into each dish and a strip of paper towelling (2.4×0.6 cm) was inserted into the connecting glass tubing to provide traction for walking bed bugs. In addition, a piece of filter paper (2×3 cm; Whatman) was placed into each lateral dish and covered with a piece of cardboard (2×2 cm) as a refuge for bioassay insects.
Treatment and control stimuli were randomly assigned to each lateral dish. Olfactometers were enclosed in opaque plastic bins to prevent light from entering and affecting the insects' response. For each replicate, a single 3rd, 4th or 5th instar C. lectularius nymph was released into the central chamber of the olfactometer, which was then covered with a glass plate to prevent escape. The single bed bugs in each olfactometer were then allowed to explore all chambers. Each insect was released into an olfactometer at the end of the 14-h photophase allowing it to explore the chambers during 10 h of darkness, and to come to rest in one of the shelters during 10 h of light. After this 20-h period, the insect's position within the olfactometer was recorded. Any insects not found in a lateral chamber were recorded as non-responders. All experimental replicates were run at 24±2° C. and 30-60% RH. Olfactometers were washed with Sparkleen detergent (Fisher Scientific Co, Pittsburgh, Pa., USA), and were oven-dried (Precision, Winchester, Va., USA) between each bioassay.
To determine whether a blend of the 15 bed bug feces volatiles that were identified in bed bug feces (see EXAMPLE 11) attracts bed bugs and thus contains one or more bed bug pheromone components, the synthetic blend (SB) was tested at a medium dose (50 μg; Experiment 45), a low dose (5 μg; Experiment 46), and a very low dose (0.5 μg; Experiment 47) for the response of bed bugs in three-dish, dual-choice olfactometers (see EXAMPLE 2, FIG. 1). At each dose tested, all components were formulated in equal amounts in mineral oil which was pipetted into the inverted lid of a 4-ml vial. The vial was then placed on top of the corrugated cardboard shelter (see FIG. 1) in the randomly assigned treatment dish of the olfactometer (see EXAMPLE 2). The control stimulus consisted of the same type of lid on the corrugated cardboard of the control dish of the olfactometer containing mineral oil without synthetic test chemicals.

Cimex lectularius [2] = experiment: large Plexiglass arena bioassay with baited and control shelters; format: in vivo; conditions: adult males
Text: The large two-chamber Plexiglass arena (180 cm long×12 cm high×13 cm wide) was designed with a central divider (180 cm long×5.5 cm high) to accommodate two pieces of wood (162 cm long×3.8 cm wide×0.8 cm high), each piece for testing the response of a single bed bug to a pheromone-baited shelter or a control shelter (see insert in FIG. 1,b) which were randomly assigned to either end of the wood. […] For each replicate, a single bed bug was placed in the center of the wood piece just prior to the end of the 14-h photophase, and its position was scored the next morning after the onset of the photophase.
Experiments 68-75 also investigated the effect of the volatile pheromone components (VPCs) (E)-2-hexenal, (E)-2-octenal, dimethyl disulfide, dimethyl trisulfide and 2-hexanone, and the effect of the less-volatile pheromone component histamine (H), on attraction and arrestment of bed bugs. Treatment stimuli consisted of filter paper (4×2.2 cm) impregnated with H (2,000 μg) and covered with a piece of corrugated cardboard shelter (3×2.2 cm), and of VPCs formulated at a high dose (500 μg; Experiments 68-74) or a medium dose (50 μg; Experiment 75) in mineral oil (0.5 ml) and pipetted into the inverted lid of a 20-ml scintillation vial resting on top of the shelter (FIG. 1). Control stimuli were of identical design but the filter paper contained no H, and the mineral oil contained no VPCs.

bed bugs = experiment: shelter traps in a heavily infested residential apartment (Room 106); format: in vivo, Cimex lectularius; conditions: 24-h periods; for Mean ± SE number insects in baited shelter: Exp. 76-79, paired shelters; for Mean (± SE) number insects in control shelter: Exp. 76-79, unbaited shelter paired with the baited shelter
Text: To determine whether bed bugs responded to synthetic pheromone lures not only in large arena laboratory bioassays but also in infested premises (residential apartments), we placed pheromone-baited shelter traps (see FIG. 1) in apartments with known or suspected bed bug infestations. […] Based on 24-hour trapping results in multiple apartments, we selected a single, heavily infested apartment (hereafter referred to as Room 106) for further testing of synthetic bed bug pheromone lures.
Replicates (n=15-20) of each experiment consisted of paired shelters placed against a wall or furniture, with approximately 30-cm spacing between paired shelters and >1 m spacing between shelter pairs. For each shelter pair within each experiment, pheromone and control treatments were randomly assigned, and placement of replicates was alternated between the two experiments of Set 1 and Set 2. Because not more than 10 shelter pairs could be accommodated in Room 106 at any time, experimental data were collected over several consecutive 24-h periods. Every morning at 9:00, shelters were collected from Room 106 and immediately placed into separate labelled zipper lock bags which were then put on dry ice to kill the bed bugs that had entered a shelter. Bed bugs in each shelter were later counted in the laboratory under a microscope, noting their developmental stage (1st, 2nd, 3rd, 4th instar, adult), sex (male, female), and evidence (or not) for blood feeding prior to entry into a shelter Immediately following the removal of bed bug shelters from Room 106 each morning, new pre-prepared shelters were pheromone-baited (treatment) or not (control) and their position within shelter pairs randomly assigned (see above), again alternating placement of shelter pairs between Experiments 76 and 77 (Set 1) and between Experiments 78 and 79 (Set 2).

[3] = baited shelter 1 vs unbaited shelter 2, VPCs 500 μg, histamine 2,000 μg

NCCc1c[nH]cn1 [H, histamine]
No. insects not responding (Cimex lectularius [1]; Exp. 23-37, nymphs, bait amounts in micrograms): 3
No. insects in control chamber (Cimex lectularius [1]; Exp. 23-37, nymphs, bait in the other chamber, amounts in micrograms): 10
No. insects in bait chamber (Cimex lectularius [1]; Exp. 23-37, nymphs, numbers in parentheses of the bait = amounts in micrograms): 35
arrestment response by form of histamine (in words) (Cimex lectularius [1]; Experiments 26-28, dimethylaminoethanol 20 μg and histamine 20 μg as base, salt or base and salt): only as a base elicits the bed bugs' arrestment response
bioactivity alone (in words) (Cimex lectularius [1]; Experiments 36-37, alone at 200 μg, nymphs): bioactive on its own
No. insects in shelter 2 (Cimex lectularius [2]; Exp. 72, H (2,000 μg) in shelter 2 vs VPC (500 μg) in shelter 1): 14
No. insects in shelter 2 (Cimex lectularius [2]; Exp. 74, H (2,000 μg) in shelter 2 vs VPC (500 μg) + H in shelter 1): 5
No. insects in shelter 2 (Cimex lectularius [2]; Exp. 75, H (2,000 μg) in shelter 2 vs VPC (50 μg) + H in shelter 1): 0
No. insects in shelter 1 (Cimex lectularius [2]; [3]): 12
No. insects not responding (Cimex lectularius [2]; [3]): 5
No. insects in shelter 2 (Cimex lectularius [2]; unbaited shelter 2, bait in shelter 1, VPCs 500 μg, histamine 2,000 μg): 1
No. insects in shelter 2 (Cimex lectularius [2]; unbaited shelter 2, bait in shelter 1, VPCs 500 μg, histamine 2,000 μg, listed as histamine): one
Mean ± SE number insects in baited shelter (bed bugs): 6.06 ± 1.28
Mean ± SE number insects in baited shelter (bed bugs; listed as histamine): 6.06
Mean (± SE) number insects in control shelter (bed bugs): 4.53 ± 1.8
Mean (± SE) number insects in control shelter (bed bugs; listed as histamine): 4.53
